# Experimental data taken from ChEMBL document CHEMBL3507680, “University of Dundee, Gates Library screen for HepG2 cell viability”.
# Test: Human HepG2 cell viability assay in 384 well format
# Format: toxicity, cell-based
# Parameters: dose 125 nL, time 70.5 hour; cytotoxicity at 70.5 h: concentration not given beside the values
# Conditions: HepG2 cells, read-out: Inhibition
row,Structure (SMILES),cytotoxicity at 70.5 h [%]
1,CC(=O)c1cc(C(=O)N2CCC3(CC2)Nc2ccccc2NC3=O)cs1,-7.09
2,CNc1cncc(C2CCCN2Cc2ccn(C)n2)n1 (stereo unspecified),-1.7
3,O=C(Nc1ccccn1)N(CCO)Cc1ccsc1,4.99
4,CC(C)c1nc(/C=C/c2cnn(-c3ccccc3)c2)ncc1C(=O)O,-1.23
5,CCn1ncnc1CN(CCOC)Cc1ccc(C)cc1,-4.05
6,CC(=O)Nc1nc(CS(=O)(=O)CCCc2ccccc2)cs1,-9.04
7,COCCNc1ccccc1CNC(=O)NCc1ccc(C)s1,-6.41
8,Cc1noc(C)c1CN(C)C(=O)NC1CCOCC1,21
9,Cc1cc(-c2cnc(NC3CCCC3)nc2-c2ccco2)on1,-6.66
10,CNc1ccnc(NCCC(=O)Nc2ccccc2OC)n1,-3.36
11,OC[C@@H]1CCCN1c1ccc(-c2nc(CCc3ccccc3)no2)cn1,-4.61
12,Cc1ccc(OC(C)CNC(=O)c2c[nH]nn2)cc1 (stereo unspecified),-7.76
13,OC(COCc1cccs1)CN1CCC(c2ccn[nH]2)CC1 (stereo unspecified),-17.6
14,O=C(NCC1CCCO1)N1CCN(Cc2ccc3c(c2)CCO3)CC1 (stereo unspecified),-9.76
15,CC(C)Nc1ncc(-c2csc(NC(=O)C[C@H]3COCCN3)n2)cn1,-10.2
16,CSCc1cccc(NC(=O)N2CCC(N3CC=CC3)C2)c1 (stereo unspecified),35
17,COc1cccc(-c2cnc3n2CCC32CCN(S(C)(=O)=O)CC2)c1,-2.2
18,Cc1cc(C(=O)N2CCCS2(=O)=O)c(C)o1,-9.77
19,Cc1nn(-c2ccc(C(=O)O)cc2)c2c1C(C(F)(F)F)SCC(=O)N2 (stereo unspecified),-5.65
20,CN(CC(=O)Nc1ccc(Br)cn1)C(=O)C(C)(C)C,-6.91
21,CC(C)OCCCNC(=O)CS(=O)(=O)Cc1ccc(Cl)cc1,13

row,Structure (SMILES),cytotoxicity at 70.5 h [%]
1,COC(=O)CCNC(=O)c1cnc(Cc2ccc(F)cc2)s1,-2.52
2,O=C1[C@H]2CN(S(=O)(=O)c3ccccc3)C[C@H]2CN1Cc1cccnc1,-15.6
3,COCC1CN(C(=O)Cc2cccs2)Cc2c1cnn2C (stereo unspecified),21.2
4,Cc1ncc2c(n1)CN(Cc1nc(-c3ccco3)oc1C)CC2,-10.5
5,Cc1sc2nc(CCN)nc(N(C)CCCC3CCCO3)c2c1C (stereo unspecified),16.5
6,Cc1nc(-c2ccc(S(=O)(=O)N3CCC=C(F)C3)cc2)co1,-9.72
7,O=C(NC1CC1)[C@@H]1C[C@@H]2CCN(Cc3ccccc3)C[C@H]2O1,-9.32
8,CNS(=O)(=O)C1CCN(c2cc(C(C)C)nc(C(C)C)n2)C1 (stereo unspecified),-6.44
9,CCn1cnnc1CNC(=O)N1CCN(c2nccs2)CC1,-3.76
10,Cc1noc(C)c1CCC(=O)NC(C)c1nnc2n1CCCCC2 (stereo unspecified),-4.24
11,Cc1ccc(C(=O)N2CCC3(CCC(=O)N(CC(C)O)C3)CC2)c(O)c1 (stereo unspecified),-7.72
12,Cc1nc(NCc2nccn2C)cc(C2COCCN2)n1 (stereo unspecified),-11.1
13,c1cnn(CCNCc2csc(-c3ccsc3)n2)c1,10.6
14,O=S(=O)(NCc1ccc(S(=O)(=O)N2CCCC2)s1)c1cc(Cl)ccc1Cl,-14.9
15,Cc1ccc(CN(C(=O)C(C)S(C)(=O)=O)C2CC2)cc1C (stereo unspecified),-4.96
16,O=C(NCc1nncn1C1CCCCC1)C1COc2ccccc2C1 (stereo unspecified),-4
17,Cc1cc(C(F)(F)F)c2c(C3CCCN(C(=O)C4CC4)C3)noc2n1 (stereo unspecified),-8.63
18,CCn1ncnc1CN1CCC(CNC(=O)c2ccccc2C#N)C1 (stereo unspecified),0.027
19,CC(c1ccccn1)N(C)Cc1ccc(-n2cncn2)cc1 (stereo unspecified),-8.14
20,O=C(NCc1ccco1)N1CCC(n2ccc(C(F)(F)F)n2)CC1,-82.9
21,CCc1nnc(CN(C)c2nccc(N3CCCC(O)C3)n2)o1 (stereo unspecified),27.2

row,Structure (SMILES),cytotoxicity at 70.5 h [%]
1,Cc1cc(C)n2ncc(CN3C[C@@H](O)[C@H](Oc4ccccc4)C3)c2n1,-13.5
2,CNc1c(NCc2ccco2)c(=O)c1=O,-12.4
3,Cc1ccc(-c2nnc(C3CCCN3S(=O)(=O)c3cnn(C)c3C)o2)s1 (stereo unspecified),2.03
4,CCc1cnc(CNc2ccc(C(=O)NCc3ccco3)cc2C)o1,-8.92
5,CCOc1ccc(S(=O)(=O)NC(=O)CC2CCCO2)cc1 (stereo unspecified),17.8
6,Cc1noc(C)c1CN1CCC[C@]2(C[C@@H](Oc3ccccn3)CO2)C1,-0.591
7,O=c1[nH][nH]cc1-c1ccnc(NCCc2ccc(F)cc2)n1,-6.1
8,Cc1nnc(C(C)N2CCc3[nH]c4ccc(Cl)cc4c3C2)o1 (stereo unspecified),-4.39
9,CCN1CCN(C(=O)c2ccc3c(c2)NC(=O)CN3)[C@H]2CS(=O)(=O)C[C@H]21,-8.61
10,COc1ccc(C(C#N)NC(=O)Cc2ccc(F)c(F)c2)c(OC)c1 (stereo unspecified),-3.6
11,Cc1cc(C(=O)N2CCOC(c3nc(C)n[nH]3)C2)[nH]n1 (stereo unspecified),3.96
12,NS(=O)(=O)c1ccc(C(=O)N2CCCC2c2ccccc2)o1 (stereo unspecified),-3.63
13,Cn1cc(CN(C(=O)c2ccc3ncsc3c2)C2CC2)cn1,19.6
14,CN1CCCN(C(=O)c2cnsn2)c2cc(Cl)ccc21,-13.8
15,CC(=O)N1CCO[C@@H]2CN(S(=O)(=O)c3cccs3)CC[C@@H]2C1,-9.77
16,CC(=O)N1C[C@H]2CN(CC3CC3)C(=O)[C@H]2C1,-0.948
17,CC(O)CNC(=O)NCCCN1CCN(c2ncccn2)CC1 (stereo unspecified),-6.22
18,N#Cc1ccccc1N1CCN(C(=O)NCCN2CCOCC2)CC1,0.377
19,Cc1nc(CN2CCO[C@@H]3CN(C(=O)CC4CC4)C[C@@H]3C2)cs1,-1.45
20,Cc1n[nH]cc1CNC1CCN(c2ccccc2)CC1,24.8
21,c1cncc(-c2noc(CN3CCCC3Cn3cccn3)n2)c1 (stereo unspecified),-3.02

row,Structure (SMILES),cytotoxicity at 70.5 h [%]
1,C1CCN(CCOC2CCNC2)CC1 (stereo unspecified),-3.02
2,O=C(CN1CCS(=O)(=O)CC1)NC1CCOc2ccccc21 (stereo unspecified),-3.04
3,CCCOC(C)C(=O)NCc1cc2n(n1)CCCN(C1CCCCC1)C2 (stereo unspecified),0.0071
4,CNc1[nH]nc(N)c1C(=O)Nc1ccc(OC)cc1,1.52
5,Cc1ccc(C(=O)N2CC[C@H]3[C@@H]2CCC(=O)N3c2ccccc2)cn1,-12.4
6,Cc1cc(S(=O)(=O)Nc2onc(C)c2C)c(C)s1,-3.24
7,CN(Cc1ccccc1F)C(=O)COC(=O)c1cc(Cl)c[nH]1,10.9
8,Cc1occc1C(=O)N1C[C@H]2CCCC(OCc3cccnc3)[C@H]2C1 (stereo partly specified),-4.67
9,CC(NCCN1CCN(C(=O)C2CCCC2)CC1)c1cnn(C)c1 (stereo unspecified),5.6
10,O=C(Cn1nc2c(cc1=O)CSCC2)NC(Cc1ccccc1)C(=O)O (stereo unspecified),23
11,CC(C)Cc1noc(CN2CCN(CCOc3ccc(Cl)cc3)CC2)n1,-10.1
12,CSc1ccc(CN(C(=O)c2cc(=O)[nH]c(=O)[nH]2)C2CC2)cc1,6.51
13,O=C(COCc1ccccc1)N1CCCC(OCc2cccnc2)C1 (stereo unspecified),15.5
14,O=S1(=O)CCC(N(Cc2nc3ccccc3o2)Cc2cccs2)C1 (stereo unspecified),19.2
15,COc1cc(C)c(CN2CCc3nc4ccsc4c(=O)n3CC2)cc1C,0.311
16,Cc1cc(NC(=O)CCN2CCCCC2Cn2cccn2)no1 (stereo unspecified),-11.9
17,CCOCc1cnc2n1CCN(Cc1cccs1)C2C (stereo unspecified),-8.03
18,Clc1ccccc1CN1CCc2nc(C3CCCNC3)ncc2C1 (stereo unspecified),-7.56
